# Earlier results as cited in US20170281701A1, “Formulation for the Nebulization of Oil Based Substances Suitable for Use with a Vibrating Mesh Nebulizer” (priority 2016, published 2017).
# Columns and labels:
# [1] = smoked cannabis cigarette, of total available amount
# [2] = not given; remark: listed apart in the source
# [3] = compared with Δ8-THC
# [4] = oral dose of 20 mg in a chocolate cookie
SMILES,absorption through the rectal route,permeability through the skin relative to Δ8-THC [3] [fold],other results
"CCCCCc1cc(O)c2c(c1)OC(C)(C)[C@@H]1CCC(C)=C[C@@H]21 [Δ^9-THC, Δ-9-tetrahydrocannabinol]",not absorbed,,"maximum of THC content in a cannabis cigarette absorbed or delivered to the systemic circulation [1]: 25-27%; absorption (description) [2, 4]: slow and unreliable; systemic availability [2, 4]: 4-12%"
"C=C(C)[C@@H]1CCC(C)=C[C@H]1c1c(O)cc(CCCCC)cc1O [CBD, cannabidiol]",,10,
"CCCCCc1cc(O)c2c(c1)OC(C)(C)c1ccc(C)cc1-2 [CBN, cannabinol]",,10,
CCCCCc1cc(O)c2c(c1)OC(C)(C)[C@@H]1CCC(C)=C[C@@H]21 [dronabinol],,,"administered dose entering the systemic circulation ([2]; orally administered, extensive first-pass metabolism): 10-20%"
CCCCCc1cc(OC(=O)CCC(=O)O)c2c(c1)OC(C)(C)[C@@H]1CCC(C)=C[C@@H]21 [Δ^9-THC-hemisuccinate],is absorbed,,
